The nature of one series: Acute Toxicity Test. The note with it: mouse, in vivo. On the procedure: The test group to which the compound of the present invention was administered consisted of ten mice. Five weeks old male mice (ddY, 23±2 g of body weight) were employed as test animals.
For another series, the system named is Lewis lung carcinoma. Kind of series: Animal Test on Lewis Lung Carcinoma (growth inhibition, metastasis). The series is classed as in vivo, mice [BDF1 (C57BL/6×DBA/2)]. The note with it: 60 mg/kg daily, orally, 8 days; tumor weight on 20th day. On the procedure:
(§1) Antitumor activities of bis-dioxopiperazine derivatives which the present invention concerns were verified by the growth inhibition or the increase of life span in experimental animals with syngenic tumors such as P388 lymphocytic leukemia, Lewis lung carcinoma, B-16 melanoma and Colon Adenocarcinoma No. 38 as shown below.
(§2) The treated group to which the compound of the present invention was administered consisted of seven mice, while the control group consisted of ten mice. Six weeks old male mice [BDF1 (C57BL/6×DBA/2), 25±2 g of body weight] were employed as host animals.
Tumor cells (5×10^5) of Lewis lung carcinoma were transplanted subcutaneously in inguinal region of each mouse. The treatment began one day after the transplantation and the prescribed dose of each test compound was administered orally to the mice once a day for 8 days.
On the 20th day after the transplantation, the tumors of all the mice were excised and weighed. Antitumor activity of the test compound was evaluated by the rate of growth inhibition (G.I.%) which was calculated with the following formula. [formula] T: mean tumor weight of treated mice C: mean tumor weight of control mice

The subject of another series is B-16 melanoma. The experiment in a line: Animal Test on B-16 Melanoma (increase in life span). The format is in vivo, mice [BDF1 (C57BL/6×DBA/2)]. The note with it: Mus musculus, B16, ip, 192 h; 20 mg/kg daily, i.p., 8 days. How it is done: The treated group to which the compound of the present invention was administered consisted of seven mice, while the control group consisted of ten mice. Six weeks old male mice [BDF1 (C57BL/6×DBA/2) 25±2 g of body weight] were employed as host animals.
Tumor cells (5×10^5) of B-16 melanoma were transplanted intraperitoneally into each mouse. The treatment began one day after the transplantation and the prescribed dose of each test compound was administered intraperitoneally to the mice once a day for 8 days.
Antitumor activity of the test compound was evaluated by the rate of increase in life span (I.L.S.%) which was calculated in the same manner as used in the animal test on P388 lymphocytic leukemia.

Series [1] deals with Colon adenocarcinoma No. 38. The experiment in a line: Animal Test on Colon Adenocarcinoma No. 38 (growth inhibition). The series is classed as in vivo, mice [BDF1 (C57BL/6×DBA/2)]. As to conditions: 60 mg/kg daily, orally, 8 days; tumor weight on 30th day. On the procedure:
as §1, §2
Tumor cells (40 mg of fragment) of Colon adenocarcinoma No. 38 were transplanted subcutaneously in inguinal region of each mouse. The treatment began one day after the transplantation and the prescribed dose of each test compound was administered orally to the mice once a day for 8 days.
On the 30th day after the transplantation, the tumors of all the mice were excised and weighed. Antitumor activity of the test compound was evaluated by the rate of growth inhibition (G.I.%) which was calculated in the same manner as used in the animal test on Lewis lung carcinoma.

The conditions of series [2]: protic polar solvents such as water, lower alcohol; background statement on known compound; cited from earlier work.
Series [3] has as its system P388 lymphocytic leukemia. The experiment in a line: Animal Test on P388 Lymphocytic Leukemia (increase in life span). The format is in vivo, mice [CDF1 (BALB/c×DBA/2)]. As to conditions: Mus musculus, P388, ip, i.p.; for ILS at 20 mg/kg: 20 mg/kg × 9 days. On the procedure:
The treated group to which the compound of the present invention was administered consisted of seven mice, while the control group consisted of ten mice. Six weeks old male mice [CDF1 (BALB/c×DBA/2), 25±2 g of body weight] were employed as host animals.
Tumor cells (1.0×10^6) of P388 lymphocytic leukemia were transplanted intraperitoneally into each mouse. The treatment began one day after the transplantation and the prescribed dose of each test compound was administered intraperitoneally to the mice once a day for 9 days or on the 1st and 5th day.
Antitumor activity of the test compound was evaluated by the rate of increase in life span (I.L.S.%) which was calculated with the following formula. [formula] T: mean survival time of treated mice C: mean survival time of control mice

Structures are written as SMILES. Bounds are passed on as bounds.

A word on the LD50: it is the dose at which mortality reaches 50%. By ILS is commonly meant the gain in survival time of treated over control animals, in per cent. A high value points to much gain in survival.

As to `O=C1CN(CCN2CC(=O)N(CN3CCOCC3)C(=O)C2)CC(=O)N1CN1CCOCC1` [1,2-bis(4-morpholinomethyl-3,5-dioxopiperazin-1-yl)ethane, reference compound], the LD50 in “Acute Toxicity Test” (ip, 14 days observation) is 280 mg/kg; in “Acute Toxicity Test” (po), > 1000 mg/kg. Besides, the results for the G.I. (in the series with Lewis lung carcinoma; in series [1]) were 22.6% and 72.8%, respectively. For the same compound, the increase in life span (ILS) at 20 mg/kg came to 40% in the series with B-16 melanoma and 90% in series [3] (216 h). Further, the “stability in protic polar solvents” value in series [2] was “extremely unstable in the protic polar solvents such as water, lower alcohol and so on”. Moreover, in series [3] (100 mg/kg × 2 (1st and 5th day)), the ILS at 100 mg/kg was 60%.

For `CC(=O)OCN1C(=O)CN(CCN2CC(=O)N(COC(C)=O)C(=O)C2)CC1=O` [1,2-Bis(4-acetoxymethyl-3,5-dioxopiperazin-1-yl)ethane], the LD50 in “Acute Toxicity Test” (ip, 14 days observation) was > 1000 mg/kg; in “Acute Toxicity Test” (po) it was > 2000 mg/kg. For the same compound, the figures for the G.I. (in the series on Lewis lung carcinoma; in series [1]) were 79.6% and 68.0%, respectively. Besides, the ILS at 20 mg/kg in the series with B-16 melanoma worked out at 39%; in series [3] (216 h), 63%. The compound also displayed an ILS at 60 mg/kg in series [3] (216 h, 60 mg/kg × 9 days) of 118%. This compound also displayed an ILS at 200 mg/kg in series [3] (200 mg/kg × 2 (1st and 5th day)) of 45%.

The values are drawn from US4650799A, “Bis-dioxopiperazine derivatives, process for their preparation, antitumor agents comprising them and compositions containing them” (Zenyaku Kogyo Kabushiki Kaisha, priority 1983, dated 1987).
